Values of other authors in US20050027113A1, “Compositions and methods relating to the daptomycin biosynthetic gene cluster” (priority 2001, published 2005).

Legend:
[1] = administration of daptomycin and an aminoglycoside

In the case of CCCCCCCCCC(=O)N[C@@H](Cc1c[nH]c2ccccc12)C(=O)N[C@H](CC(N)=O)C(=O)N[C@@H](CC(=O)O)C(=O)N[C@@H]1C(=O)NCC(=O)N[C@@H](CCCN)C(=O)N[C@@H](CC(=O)O)C(=O)N[C@H](C)C(=O)N[C@@H](CC(=O)O)C(=O)NCC(=O)N[C@H](CO)C(=O)N[C@@H]([C@H](C)CC(=O)O)C(=O)N[C@@H](CC(=O)c2ccccc2N)C(=O)O[C@@H]1C [daptomycin], the “antibacterial activity against classically resistant strains versus classically susceptible strains” value (gram-positive organisms; in vitro experiments) is given as “comparable”, the “minimum inhibitory concentration (MIC) value against susceptible strains, relative to vancomycin” value (gram-positive organisms; susceptible strains, fold lower than vancomycin) is given as about 4 fold and the “bactericidal activity against gram-positive organisms” value (gram-positive organisms; unlike glycopeptide antibiotics) is given as “rapid, concentration-dependent bactericidal activity”. For the same compound, the “effect on renal toxicity caused by a co-administered aminoglycoside” value [1] was “may ameliorate renal toxicity caused by the aminoglycoside”.
